In paper PMC6553790 (PLoS Pathogens, 2019):
Entries after “also recorded” stand apart in the source; their conditions may differ.

System: P. falciparum Cam3.II lines
Assay: Isobologram analyses (fixed-ratio drug combinations)
Assay type: cell-based, Plasmodium falciparum
Method: Assays were performed with fixed ratios of drug combinations (1:0, 4:1, 2:1, 1:1, 1:2, 1:4, and 0:1), tested in duplicate. Combinations were prepared from 16×IC50 drug stocks and tested across a range of two-fold dilutions. Assays were conducted with asynchronous cultures exposed for 72 hr or with tightly synchronized rings or trophozoites (tested at 0–3 hr or 24–27 hr post-invasion, respectively) exposed for 3 hr. Post-pulse drug washouts were conducted as described above for in vitro determination of IC50 levels. IC50 values were derived for each compound tested alone, and fractional IC50 (FIC50) values were determined for each compound tested in combination (FIC50 = […]) and plotted for each drug combination. For each combination, the mean of the sums of FIC50 values at each combination (mean ΣFIC50) was also calculated and the results illustrated using heat maps.

[1] = combined with WLL, Asynchronous, 72 hr, Cam3.II K13C580Y
[2] = combined with WLL, Asynchronous, 72 hr, Cam3.II K13WT
[3] = combined with WLW, Asynchronous, 72 hr, Cam3.II K13C580Y
[4] = combined with WLW, Asynchronous, 72 hr, Cam3.II K13WT
[5] = across asynchronous parasites, early rings and trophozoites
[6] = combined with WLL, Rings, 3 hr exposure, Cam3.II K13C580Y
[7] = combined with WLL, Rings, 3 hr exposure, Cam3.II K13WT
[8] = combined with WLL, Trophozoites, 3 hr exposure, Cam3.II K13C580Y
[9] = combined with WLL, Trophozoites, 3 hr exposure, Cam3.II K13WT
[10] = combined with WLW, Rings, 3 hr exposure, Cam3.II K13C580Y
[11] = combined with WLW, Rings, 3 hr exposure, Cam3.II K13WT
[12] = combined with WLW, Trophozoites, 3 hr exposure, Cam3.II K13C580Y
[13] = combined with WLW, Trophozoites, 3 hr exposure, Cam3.II K13WT
[14] = asynchronous parasites, rings and trophozoites (S1 Fig)
[15] = asynchronous parasites, early rings and trophozoites, Cam3.II K13WT and K13C580Y

Structure (SMILES) | Interaction with WLL or WLW (asynchronous parasites, 72 hr) | Mean of the sums of FIC50 (mean ΣFIC50) [1] | Mean of the sums of FIC50 (mean ΣFIC50) [2] | Mean of the sums of FIC50 (mean ΣFIC50) [3] | Mean of the sums of FIC50 (mean ΣFIC50) [4] | Interaction with WLL or WLW [5] | Mean of the sums of FIC50 (mean ΣFIC50) [6] | Mean of the sums of FIC50 (mean ΣFIC50) [7] | Mean of the sums of FIC50 (mean ΣFIC50) [8] | Mean of the sums of FIC50 (mean ΣFIC50) [9] | Mean of the sums of FIC50 (mean ΣFIC50) [10] | Mean of the sums of FIC50 (mean ΣFIC50) [11] | Mean of the sums of FIC50 (mean ΣFIC50) [12] | Mean of the sums of FIC50 (mean ΣFIC50) [13] | Interaction with WLW (isobologram) (asynchronous parasites and trophozoites) | Interaction with WLL (isobologram) [14] | Interaction with WLW (isobologram) (early ring stage) | Interaction with WLL or WLW (early rings and trophozoites) | Interaction with WLW (isobologram) [15] | Interaction with WLL (isobologram) (early rings and trophozoites)
CC(=O)N1CCN(c2ccc(CN(C(=O)/C=C/c3ccc(C(C)(C)C)cc3)[C@@H](Cc3ccccc3)C(=O)N3CCN(Cc4ccc(C#N)cc4)CC3)cc2)CC1 [ACT-451840] | antagonism | 1.27 | 1.34 | 1.14 | 1.16 | – | – | – | – | – | – | – | – | – | – | – | – | – | – | –
O=C(O)CCc1cccc2c1B(O)OC2 [AN3661] | antagonism | 1.58 | 1.69 | 1.63 | 1.64 | – | – | – | – | – | – | – | – | – | – | – | – | – | – | –
O=C1C(O)=C([C@H]2CC[C@H](c3ccc(Cl)cc3)CC2)C(=O)c2ccccc21 [ATQ, atovaquone] | – | 1.22 | 1.33 | 1.16 | 1.28 | Additive to antagonistic; also recorded: antagonism observed in asynchronous parasites and early rings was attenuated in trophozoites | 1.54 | 1.64 | 0.99 | 1.11 | 1.20 | 1.17 | 1.07 | 1.02 | – | – | – | – | – | –
C[C@@H]1C[C@@H]([C@H](O)CC2CC(=O)NC(=O)C2)C(=O)[C@@H](C)C1 [CHX, cycloheximide] | antagonism | 1.40 | 1.44 | 1.37 | 1.29 | – | – | – | – | – | – | – | – | – | – | – | – | – | – | –
CCN(CC)CCCC(C)Nc1ccnc2cc(Cl)ccc12 (stereo not drawn) [CQ, chloroquine] | – | 1.53 | 1.41 | 1.36 | 1.29 | Additive to antagonistic; also recorded: moderate to potent antagonism | 1.70 | 1.69 | 1.75 | 1.89 | 1.54 | 1.45 | 1.41 | 1.57 | – | – | – | – | – | –
O=C(NCCN1CCCC1)c1cc(-c2ccc(CN3CCOCC3)cc2)nc2ccc(F)cc12 [DDD107498] | antagonism | 1.60 | 1.65 | 1.44 | 1.28 | – | – | – | – | – | – | – | – | – | – | – | – | – | – | –
Cc1cc(Nc2ccc(S(F)(F)(F)(F)F)cc2)n2nc(C(C)(F)F)nc2n1 [DSM265] | antagonism | 1.46 | 1.34 | 1.30 | 1.24 | – | – | – | – | – | – | – | – | – | – | – | – | – | – | –
CC1(C)C(N(O)C(=O)Nc2ccc(Cl)cc2)N(c2ccc(Cl)cc2)C(=O)N1CC(=O)N/N=C/C=C/c1ccc([N+](=O)[O-])o1 (stereo not drawn) [ESI, eeyarestatin I] | – | 1.29 | 1.28 | 0.97 | 0.98 | – | 1.09 | 1.05 | 1.05 | 1.19 | 0.80 | 0.73 | 1.08 | 0.97 | additive | largely additive | Mild synergy | – | – | –
O=C(CC1NCCCC1O)Cn1cnc2cc(Br)c(Cl)cc2c1=O (stereo not drawn) [HFG, halofuginone] | antagonism | 1.46 | 1.47 | 1.53 | 1.42 | – | – | – | – | – | – | – | – | – | – | – | – | – | – | –
CCCCN(CCCC)CC(O)c1cc(Cl)cc2c1-c1ccc(Cl)cc1/C2=C/c1ccc(Cl)cc1 (stereo not drawn) [LMF, lumefantrine] | mild antagonism | 1.24 | 1.42 | 1.07 | 1.32 | Additive to antagonistic | 1.13 | 1.23 | 1.24 | 1.12 | 0.98 | 0.95 | 1.01 | 1.16 | – | – | – | largely additive | – | –
CN(C)c1ccc2nc3ccc(=[N+](C)C)cc-3sc2c1 [MB, methylene blue] | – | 1.20 | 1.22 | 0.83 | 0.89 | – | 0.84 | 0.87 | – | – | 0.36 | 0.40 | 0.78 | 0.71 | – | synergy with WLL was limited to the early ring stage | – | – | synergy | –
C[C@H]1Cc2c([nH]c3cc(Cl)c(F)cc23)[C@@]2(N1)C(=O)Nc1ccc(Cl)cc12 [NITD609] | antagonism | 1.67 | 1.58 | 1.44 | 1.39 | – | – | – | – | – | – | – | – | – | – | – | – | – | – | –
c1cc([C@H]2CC[C@]3(CC2)OO[C@]2(O3)C3CC4CC(C3)CC2C4)ccc1OCCN1CCOCC1 [OZ439] | – | 1.10 | 1.21 | 0.76 | 0.85 | – | 0.79 | 0.65 | 0.67 | 0.64 | 0.40 | 0.35 | 0.51 | 0.48 | – | – | – | – | synergy | Synergy
Clc1ccc2c(N3CCN(CCCN4CCN(c5ccnc6cc(Cl)ccc56)CC4)CC3)ccnc2c1 [PPQ, piperaquine] | – | 1.37 | 1.52 | 1.33 | 1.44 | Additive to antagonistic; also recorded: antagonism observed in asynchronous parasites and early rings was attenuated in trophozoites | 1.41 | 1.46 | 1.23 | 1.32 | 1.30 | 1.20 | 1.20 | 1.14 | – | – | – | – | – | –
C=CC(=O)N1C/C(=C\c2ccc([N+](=O)[O-])cc2)C(=O)/C(=C/c2ccc([N+](=O)[O-])cc2)C1 [b-AP15] | – | 1.11 | 1.05 | 0.78 | 0.86 | – | 0.77 | 0.80 | 0.66 | 0.67 | 0.35 | 0.34 | 0.52 | 0.60 | – | – | – | – | synergy | Synergy
